Data from ChEMBL document CHEMBL5532675, “Discovery of 4-Ethoxy-6-chloro-5-azaindazoles as Novel PDE4 Inhibitors for the Treatment of Alcohol Use Disorder and Alcoholic Liver Diseases” (J Med Chem, 2024).
Values belong to the compound of their own block, whether it stands above or below them.

Columns and labels:
[1] = Half-life in Sprague-Dawley rat at 10 mg/kg, po measured after 48 hrs by LC-MS/MS analysis; assay type: ADME, organism-based; details: in vivo
[2] = Oral bioavailability in Sprague-Dawley rat at 10 mg/kg measured after 48 hrs by LC-MS/MS analysis; assay type: ADME, organism-based; details: in vivo
SH-SY5Y = assay: Cytotoxicity against human SH-SY5Y cells assessed as reduction in cell viability incubated for 48 hrs by MTT assay; assay type: toxicity, cell-based
[3] = Selectivity ratio for inhibition of PDE8A1 (unknown origin) using FAM-cyclic-3',5'-AMP as substrate to inhibition of PDE4B1 (unknown origin) using FAM-cyclic-3',5'-AMP as substrate
[4] = molecular target: High affinity cAMP-specific and IBMX-insensitive 3',5'-cyclic phosphodiesterase 8A (Homo sapiens) (UniProt O60658); assay: Inhibition of PDE8A1 (unknown origin) using FAM-cyclic-3',5'-AMP as substrate at 10 uM incubated for 1 hrs by fluorescence polarization based IMAP assay relative to control
[5] = Selectivity ratio for inhibition of PDE9A (unknown origin) using FAM-cyclic-3',5'-AMP as substrate to inhibition of PDE4B1 (unknown origin) using FAM-cyclic-3',5'-AMP as substrate
[6] = Selectivity ratio for inhibition of PDE7A (unknown origin) using FAM-cyclic-3',5'-AMP as substrate to inhibition of PDE4D7 (unknown origin) using FAM-cyclic-3',5'-AMP as substrate
[7] = molecular target: T1, 3',5'-cyclic-AMP phosphodiesterase 4D (Homo sapiens, UniProt Q08499); assay: Inhibition of PDE4D7 (unknown origin) using FAM-cyclic-3',5'-AMP as substrate at 100 nM incubated for 1 hrs by fluorescence polarization based IMAP assay relative to control
[8] = Toxicity in ketamine/xylazine-induced anesthetic C57BL/6J mouse model assessed as emetogenic potential by measuring reduction in anesthesia duration at 5 mg/kg, po preadministered with compound for 15 mins followed by ketamine/xylazine administration; assay type: organism-based; details: in vivo, 0.25 h
[9] = Selectivity ratio for inhibition of PDE7A (unknown origin) using FAM-cyclic-3',5'-AMP as substrate to inhibition of PDE4B1 (unknown origin) using FAM-cyclic-3',5'-AMP as substrate
[10] = molecular target: T1, 3',5'-cyclic-AMP phosphodiesterase 4D; assay: Inhibition of PDE4D7 (unknown origin) using FAM-cyclic-3',5'-AMP as substrate incubated for 1 hrs by fluorescence polarization based IMAP assay
[11] = Selectivity ratio for inhibition of PDE3B (unknown origin) using FAM-cyclic-3',5'-AMP as substrate to inhibition of PDE4B1 (unknown origin) using FAM-cyclic-3',5'-AMP as substrate
[12] = Selectivity ratio for inhibition of PDE9A (unknown origin) using FAM-cyclic-3',5'-AMP as substrate to inhibition of PDE4D7 (unknown origin) using FAM-cyclic-3',5'-AMP as substrate
[13] = Selectivity ratio for inhibition of PDE3B (unknown origin) using FAM-cyclic-3',5'-AMP as substrate to inhibition of PDE4D7 (unknown origin) using FAM-cyclic-3',5'-AMP as substrate
[14] = molecular target: 3',5'-cyclic-AMP phosphodiesterase 4B (Homo sapiens, UniProt Q07343); assay: Inhibition of PDE4B1 (unknown origin) using FAM-cyclic-3',5'-AMP as substrate incubated for 1 hrs by fluorescence polarization based IMAP assay
[15] = molecular target: T1, 3',5'-cyclic-AMP phosphodiesterase 4D; assay: Inhibition of PDE4D7 (unknown origin) using FAM-cyclic-3',5'-AMP as substrate at 10 nM incubated for 1 hrs by fluorescence polarization based IMAP assay relative to control
[16] = molecular target: High affinity cGMP-specific 3',5'-cyclic phosphodiesterase 9A (Homo sapiens) (UniProt O76083); assay: Inhibition of PDE9A (unknown origin) using FAM-cyclic-3',5'-AMP as substrate at 10 uM incubated for 1 hrs by fluorescence polarization based IMAP assay relative to control
[17] = molecular target: High affinity 3',5'-cyclic-AMP phosphodiesterase 7A (Homo sapiens) (UniProt Q13946); assay: Inhibition of PDE7A (unknown origin) using FAM-cyclic-3',5'-AMP as substrate at 10 uM incubated for 1 hrs by fluorescence polarization based IMAP assay relative to control
[18] = Chemical stability of compound in aqueous solution at pH >10 measured after 48 hrs; assay type: physicochemical; details: buffer
[19] = Selectivity ratio for inhibition of PDE8A1 (unknown origin) using FAM-cyclic-3',5'-AMP as substrate to inhibition of PDE4D7 (unknown origin) using FAM-cyclic-3',5'-AMP as substrate
[20] = molecular target: cGMP-inhibited 3',5'-cyclic phosphodiesterase 3B (Homo sapiens) (UniProt Q13370); assay: Inhibition of PDE3B (unknown origin) using FAM-cyclic-3',5'-AMP as substrate at 10 uM incubated for 1 hrs by fluorescence polarization based IMAP assay relative to control
[21] = Chemical stability of compound in aqueous solution at pH <6 measured after 48 hrs; assay type: physicochemical; details: buffer
HT-22 = assay: Cytotoxicity against mouse HT-22 cells assessed as reduction in cell viability incubated for 48 hrs by MTT assay; assay type: toxicity, cell-based; details: ht-22, 48 h

T1 sequence (Q08499 whole entry): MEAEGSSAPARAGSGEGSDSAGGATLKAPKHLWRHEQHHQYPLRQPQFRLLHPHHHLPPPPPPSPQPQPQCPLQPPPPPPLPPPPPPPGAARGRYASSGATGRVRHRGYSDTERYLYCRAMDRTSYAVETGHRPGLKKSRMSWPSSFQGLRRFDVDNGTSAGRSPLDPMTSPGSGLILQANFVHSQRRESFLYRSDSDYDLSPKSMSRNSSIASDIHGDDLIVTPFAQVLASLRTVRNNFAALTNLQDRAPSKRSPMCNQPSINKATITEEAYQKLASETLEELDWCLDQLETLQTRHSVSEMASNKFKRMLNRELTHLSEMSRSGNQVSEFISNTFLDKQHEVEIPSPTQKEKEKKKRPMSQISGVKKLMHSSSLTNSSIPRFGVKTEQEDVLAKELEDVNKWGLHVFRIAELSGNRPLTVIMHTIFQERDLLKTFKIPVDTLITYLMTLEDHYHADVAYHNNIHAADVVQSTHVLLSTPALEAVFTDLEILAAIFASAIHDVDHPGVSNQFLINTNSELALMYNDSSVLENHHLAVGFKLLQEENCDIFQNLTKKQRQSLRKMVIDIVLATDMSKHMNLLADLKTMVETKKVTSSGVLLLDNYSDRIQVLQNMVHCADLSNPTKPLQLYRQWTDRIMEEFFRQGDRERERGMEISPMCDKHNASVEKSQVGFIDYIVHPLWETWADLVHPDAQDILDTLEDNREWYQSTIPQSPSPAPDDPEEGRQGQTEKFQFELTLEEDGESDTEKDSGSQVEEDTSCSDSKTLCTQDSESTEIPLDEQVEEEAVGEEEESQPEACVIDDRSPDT
Chain of High affinity cAMP-specific and IBMX-insensitive 3',5'-cyclic phosphodiesterase 8A (Homo sapiens) (O60658 whole entry): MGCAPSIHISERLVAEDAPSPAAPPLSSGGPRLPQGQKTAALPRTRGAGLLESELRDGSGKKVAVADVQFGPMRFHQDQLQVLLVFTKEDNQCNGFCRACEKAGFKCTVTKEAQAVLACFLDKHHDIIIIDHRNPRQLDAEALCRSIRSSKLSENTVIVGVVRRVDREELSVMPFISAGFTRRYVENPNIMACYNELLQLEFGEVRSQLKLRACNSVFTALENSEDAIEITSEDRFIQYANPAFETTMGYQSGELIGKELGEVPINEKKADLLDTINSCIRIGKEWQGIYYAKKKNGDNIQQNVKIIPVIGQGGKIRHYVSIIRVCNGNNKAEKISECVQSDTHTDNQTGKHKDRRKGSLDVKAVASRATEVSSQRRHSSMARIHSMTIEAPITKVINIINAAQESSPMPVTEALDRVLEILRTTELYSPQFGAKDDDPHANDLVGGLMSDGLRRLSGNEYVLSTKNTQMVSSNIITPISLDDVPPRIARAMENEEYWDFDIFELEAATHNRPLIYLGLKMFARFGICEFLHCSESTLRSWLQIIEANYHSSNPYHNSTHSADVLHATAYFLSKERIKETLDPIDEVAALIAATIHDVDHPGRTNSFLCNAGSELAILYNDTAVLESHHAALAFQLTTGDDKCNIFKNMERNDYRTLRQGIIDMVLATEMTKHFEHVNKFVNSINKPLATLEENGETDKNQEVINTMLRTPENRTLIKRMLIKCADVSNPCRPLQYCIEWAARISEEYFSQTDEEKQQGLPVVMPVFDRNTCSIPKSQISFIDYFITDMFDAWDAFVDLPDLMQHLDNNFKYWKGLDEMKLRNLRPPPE
Chain of High affinity 3',5'-cyclic-AMP phosphodiesterase 7A (Homo sapiens) (Q13946 whole entry): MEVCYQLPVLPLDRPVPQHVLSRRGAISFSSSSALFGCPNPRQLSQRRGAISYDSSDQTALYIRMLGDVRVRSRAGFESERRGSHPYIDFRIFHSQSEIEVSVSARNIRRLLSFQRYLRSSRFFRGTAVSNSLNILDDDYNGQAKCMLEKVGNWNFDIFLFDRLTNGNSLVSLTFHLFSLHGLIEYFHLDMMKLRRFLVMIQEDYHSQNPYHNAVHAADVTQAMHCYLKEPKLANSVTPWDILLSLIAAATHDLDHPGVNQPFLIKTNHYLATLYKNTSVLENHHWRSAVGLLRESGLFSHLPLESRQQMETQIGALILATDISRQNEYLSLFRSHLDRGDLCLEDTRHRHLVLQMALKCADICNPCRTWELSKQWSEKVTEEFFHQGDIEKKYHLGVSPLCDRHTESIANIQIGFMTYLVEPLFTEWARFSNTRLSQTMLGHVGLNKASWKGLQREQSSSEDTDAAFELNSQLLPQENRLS
Chain of High affinity cGMP-specific 3',5'-cyclic phosphodiesterase 9A (Homo sapiens) (O76083 whole entry): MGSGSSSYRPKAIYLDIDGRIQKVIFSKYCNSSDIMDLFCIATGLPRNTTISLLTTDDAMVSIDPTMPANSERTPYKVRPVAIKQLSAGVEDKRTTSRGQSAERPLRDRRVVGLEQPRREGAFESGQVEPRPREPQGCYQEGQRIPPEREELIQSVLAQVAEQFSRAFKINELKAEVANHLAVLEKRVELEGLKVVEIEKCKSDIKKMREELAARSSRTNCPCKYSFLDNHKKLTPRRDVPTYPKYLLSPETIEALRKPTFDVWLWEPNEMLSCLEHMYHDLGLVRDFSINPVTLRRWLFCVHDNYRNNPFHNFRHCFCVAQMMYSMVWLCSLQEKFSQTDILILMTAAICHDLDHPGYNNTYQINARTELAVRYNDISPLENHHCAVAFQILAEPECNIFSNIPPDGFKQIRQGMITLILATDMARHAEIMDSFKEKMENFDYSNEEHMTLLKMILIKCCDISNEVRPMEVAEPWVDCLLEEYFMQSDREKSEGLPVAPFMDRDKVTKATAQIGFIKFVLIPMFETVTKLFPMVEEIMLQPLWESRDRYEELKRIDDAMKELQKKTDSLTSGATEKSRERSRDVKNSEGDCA
Chain of cGMP-inhibited 3',5'-cyclic phosphodiesterase 3B (Homo sapiens) (Q13370 whole entry, looked up): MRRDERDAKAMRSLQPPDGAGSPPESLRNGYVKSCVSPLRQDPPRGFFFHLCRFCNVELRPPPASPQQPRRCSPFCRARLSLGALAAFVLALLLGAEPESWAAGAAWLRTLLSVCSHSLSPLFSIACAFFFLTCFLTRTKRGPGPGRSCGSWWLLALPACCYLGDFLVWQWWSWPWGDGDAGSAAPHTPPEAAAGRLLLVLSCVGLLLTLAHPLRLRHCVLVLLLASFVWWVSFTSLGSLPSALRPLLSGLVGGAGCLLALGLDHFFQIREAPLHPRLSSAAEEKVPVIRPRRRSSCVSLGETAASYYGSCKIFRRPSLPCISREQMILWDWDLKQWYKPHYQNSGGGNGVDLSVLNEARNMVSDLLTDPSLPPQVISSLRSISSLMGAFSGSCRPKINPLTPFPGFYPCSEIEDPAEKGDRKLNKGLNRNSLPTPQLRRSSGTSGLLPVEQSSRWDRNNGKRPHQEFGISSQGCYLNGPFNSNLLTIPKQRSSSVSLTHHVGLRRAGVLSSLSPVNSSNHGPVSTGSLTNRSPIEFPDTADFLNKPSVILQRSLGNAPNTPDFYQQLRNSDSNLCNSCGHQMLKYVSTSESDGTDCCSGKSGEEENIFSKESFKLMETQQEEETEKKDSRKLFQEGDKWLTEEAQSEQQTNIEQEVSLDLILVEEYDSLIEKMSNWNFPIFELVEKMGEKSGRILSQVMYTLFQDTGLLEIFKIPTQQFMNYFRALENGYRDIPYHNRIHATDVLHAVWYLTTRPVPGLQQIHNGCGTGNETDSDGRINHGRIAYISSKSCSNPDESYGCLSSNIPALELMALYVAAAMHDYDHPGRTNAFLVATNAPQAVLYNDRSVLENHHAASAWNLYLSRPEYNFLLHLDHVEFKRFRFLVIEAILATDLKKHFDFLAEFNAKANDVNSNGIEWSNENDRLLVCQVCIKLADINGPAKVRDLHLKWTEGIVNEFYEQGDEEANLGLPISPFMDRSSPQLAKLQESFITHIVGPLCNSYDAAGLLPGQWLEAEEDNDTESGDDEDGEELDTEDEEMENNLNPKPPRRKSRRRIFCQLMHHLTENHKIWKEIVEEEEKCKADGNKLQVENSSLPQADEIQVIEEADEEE
Chain of 3',5'-cyclic-AMP phosphodiesterase 4B (Q07343 whole entry): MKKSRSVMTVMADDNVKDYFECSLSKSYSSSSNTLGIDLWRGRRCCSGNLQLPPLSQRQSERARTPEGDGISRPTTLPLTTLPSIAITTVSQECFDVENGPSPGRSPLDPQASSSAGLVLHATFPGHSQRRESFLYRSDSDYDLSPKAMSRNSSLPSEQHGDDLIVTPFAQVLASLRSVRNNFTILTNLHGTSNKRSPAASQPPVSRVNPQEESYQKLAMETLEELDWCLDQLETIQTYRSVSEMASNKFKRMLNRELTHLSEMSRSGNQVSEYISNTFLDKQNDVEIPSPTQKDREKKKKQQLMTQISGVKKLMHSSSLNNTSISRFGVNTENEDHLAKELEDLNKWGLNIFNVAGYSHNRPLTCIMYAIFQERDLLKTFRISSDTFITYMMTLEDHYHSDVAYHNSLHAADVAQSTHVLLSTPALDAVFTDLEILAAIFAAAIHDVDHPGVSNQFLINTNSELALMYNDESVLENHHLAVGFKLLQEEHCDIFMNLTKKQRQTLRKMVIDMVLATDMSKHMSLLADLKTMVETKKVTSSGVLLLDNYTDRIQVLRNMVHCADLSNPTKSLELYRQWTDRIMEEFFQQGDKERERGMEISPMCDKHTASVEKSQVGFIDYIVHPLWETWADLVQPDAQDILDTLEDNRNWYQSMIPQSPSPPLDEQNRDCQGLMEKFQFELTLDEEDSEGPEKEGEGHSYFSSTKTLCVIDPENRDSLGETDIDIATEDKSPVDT

half-life [1]: 59.4 min
bioavailability [2]: 43%
SMILES: CCNc1cc(C(=O)C2CCCC2)ccc1OC

Selectivity ratio [3]: > 284
inhibition [4]: 7%
Selectivity ratio [5]: > 284
Selectivity ratio [6]: > 284
inhibition [7]: 69%
Selectivity ratio [9]: > 284
IC50 [10]: 25.6 nM
Selectivity ratio [11]: > 284
Selectivity ratio [12]: > 284
Selectivity ratio [13]: > 284
IC50 [14]: 35.2 nM
inhibition [15]: 35%
inhibition [16]: 6%
inhibition [17]: 12%
Stability [18]: Stable
Selectivity ratio [19]: > 284
inhibition [20]: 7%
Stability [21]: Stable
SMILES: CCOc1nc(Cl)cc2nn(CCC(=O)O)cc12
Activity (SH-SY5Y): Non-Toxic
Activity [8]: Toxic
Activity (HT-22): Non-Toxic
